Holding throughout (assay type): in vivo
The subject of assay [1] is Abutilon theophrasti (ABUTH). Put plainly: Biological Example 1 glasshouse assay for herbicidal activity. The note with it: 312 h, 13 days after application, read-out: percentage phytotoxicity ABUTH. How it is done:
(§1) Seeds of a variety of test plant species were sown in standard soil** in pots. After cultivation for one day (pre-emergence) or after 8 days cultivation (post-emergence) under controlled conditions in a glasshouse (at 24/16° C., day/night; 14 hours light; 65% humidity), the plants were sprayed with an aqueous spray solution derived from the formulation of the technical active ingredient (the test herbicide) in acetone/water (50:50) solution containing 0.5% Tween 20 (polyoxyethylene sorbitan monolaurate, CAS Reg. No. 9005-64-5). The test plants were then grown on under controlled conditions in a glasshouse (at 24/16° C., day/night; 14 hours light; 65% humidity) and watered twice daily. 13 Days after application of the test herbicide, for pre- and post-emergence, the test was evaluated visually for percentage phytotoxicity to each plant (where 100%=total damage to plant; 0%=no damage to plant). Generally, each test herbicide is only tested on 1 plant per plant species for each application rate tested and for each application timing. **The “standard soil” in Biological Example 1 is usually a “sand” or “sandy loam” type of soil.
(§2) Dicotyledonous weeds: ABUTH=Abutilon theophrasti; AMARE=Amaranthus retroflexus. Grassy monocotyledonous weeds: SETFA=Setaria faberi; ALOMY=Alopecurus myosuroides; ECHCG=Echinochloa crus-galli; ZEAMX=Zea mays (corn, maize, e.g. volunteer corn).

The test system of assay [2] is Alopecurus myosuroides (ALOMY). The assay is described as above. To be noted: 312 h, 13 days after application, read-out: percentage phytotoxicity ALOMY. The procedure: as §1, §2
The subject of assay [3] is Echinochloa crus-galli (ECHCG). Described as above. The note with it: Echinochloa crus-galli, 312 h, 13 days after application, read-out: percentage phytotoxicity ECHCG. How it is done: as §1, §2
Assay [4] has as its system Zea mays (ZEAMX, corn, maize, e.g. volunteer corn). The description is as above. To be noted: Zea mays, 312 h, 13 days after application, read-out: percentage phytotoxicity ZEAMX. How it is done: as §1, §2
Assay [5] concerns Amaranthus retroflexus (AMARE). The assay is described as above. The note with it: Amaranthus retroflexus, 312 h, 13 days after application, read-out: percentage phytotoxicity AMARE. How it is done: as §1, §2
In assay [6] the test system is Setaria faberi (SETFA). The description is as above. To be noted: 312 h, 13 days after application, read-out: percentage phytotoxicity SETFA. How it is done: as §1, §2
Assay [7] has as its system Eleusine indica (ELEIN). Put plainly: Biological Example 3 glasshouse assay for herbicidal activity, using various adjuvant systems. To be noted: post-emergence, 8 g/ha, 14 or 15 DAA; adjuvant 0.5% v/v + 1.0% AMS + 12.5% IPA: TEHP (A3-A7), Adigor (A8, P1, P2, P4), Hexamoll DINCH (A1). How it is done: (§3) • Materials and Methods • Herbicide Application: Post-emergence foliar spray application, 200 L/ha, usually one or two replicates for the weeds (depending on application rate), and two replicates for soybean. • Climate: Standard warm conditions (tropical), in glasshouse. Specifically, the glasshouse bay conditions are 24° C./18° C. day/night; 16/8 hours light/dark; 65% humidity. • Plants: The herbicidal application takes place at the following growth stages for plants which include inter alia one or more of the following plants (usually the herbicidal application takes place on at least the following plants: DIGSA, ELEIN, SETFA, ZEAMX, GLXMA Nikko, and GLXMA TMG133, and often also either BRADC or BRAPP): • Brachiaria decumbens (BRADC)—growth stage (GS) 12 or 13 (or GS 12)—or, if BRADC is not used, then usually Brachiaria platyphylla (BRAPP)—growth stage 12 or 13 • Digitaria sanguinalis (DIGSA)—growth stage 12 or 13 • Eleusine indica (ELEIN)—growth stage 12 or 13 • Setaria faberi (SETFA)—growth stage 12 or 13 • Echinochloa crus-galli (ECHCG)—growth stage 12 or 13 • Sorghum halepense (annual) (SORHA)—growth stage 12 or 13 • Panicum dichotomiflorum (PANDI)—growth stage 12 or 13 • Zea mays (ZEAMX, maize/corn, e.g. can occur as volunteer corn) cultivar “Garland”—growth stage 12 or 13 • Glycine max (GLXMA, soybean) cultivar “Nikko”—growth stage: 1st trifoliate • Glycine max (GLXMA, soybean) cultivar “TMG133”—which is Roundup Ready™ glyphosate-tolerant soybean cultivar TMG133 (typically available from Monsanto in Brazil)—growth stage: 1st trifoliate. • Herbicidal Compositions Tested:
(§4) Each test compound is applied with one of the following adjuvant systems (all percentages are final concentrations in the aqueous spray mixture): • Adjuvant system 1: 0.5% v/v Adigor™*, 1.0% v/v AMS (ammonium sulphate) and 12.5% v/v IPA (isopropyl alcohol). • Adjuvant system 2: 0.5% v/v Hexamoll™ DINCH**, 1.0% v/v AMS (ammonium sulphate) and 12.5% v/v IPA (isopropyl alcohol). • Adjuvant system 3: 0.5% v/v tris-(2-ethylhexyl)phosphate (“TEHP”), 1.0% v/v AMS (ammonium sulphate) and 12.5% v/v IPA (isopropyl alcohol). ***Adigor™ (currently available in many countries from Syngenta) is an emulsifiable concentrate which consists of: • (i) ethoxylated alcohols, which typically includes ethoxylated higher alcohols (e.g. ethoxylates of alcohols wherein the alcohols are within the range of C12-C22); and • (ii) a mixture of heavy aromatic hydrocarbons, which typically includes (e.g. includes 50% or more by weight of the heavy aromatic hydrocarbons of) a mixture of naphthalenes each of which is substituted by one or more alkyls wherein the alkyl(s) in total have 1-4 carbon atoms per naphthalene molecule (e.g. Solvesso 200 ND™); and • (iii) about 47% w/w and/or about 45% w/v (with respect to the emulsifiable concentrate) of methylated rapeseed oil (rapeseed oil methyl ester) (e.g. Agnique ME 18 RD-F™), as an adjuvant. **Hexamoll™ DINCH™ is 1,2-cyclohexane dicarboxylic acid di-isononyl ester
(§5) Seeds of the weed (including volunteer) plants, typically including inter alia Digitaria sanguinalis (DIGSA), Eleusine indica (ELEIN), Setaria faberi (SETFA), Zea mays (ZEAMX, corn), and sometimes also [either Brachiaria decumbens (BRADC) or Brachiaria platyphylla (BRAPP)], are sown in seed trays (troughs) containing clay loam soil (pH 7.0, 2.2% organic matter, “Trough Mix A”); and soybean seed is sown in pots containing the same soil with 3 soybean seedlings per pot. The plants are sprayed with the test herbicide when they reach the growth stages mentioned above.
(§6) The test herbicidal solutions are prepared by mixing the appropriate aliquots of the test substance(s) and one of the adjuvant systems indicated above*** in deionised water to give the desired treatment concentration.
(§7) The herbicidal application is made as a foliar spray, using a tracksprayer. Following the herbicidal application, the plants are watered twice per day for the duration of the test. […]

The test system of assay [8] is Digitaria sanguinalis (DIGSA). The description is as above. The note with it: post-emergence, 8 g/ha, 14 or 15 DAA; adjuvant 0.5% v/v + 1.0% AMS + 12.5% IPA: TEHP (A3-A7), Adigor (A8, P1, P2, P4), Hexamoll DINCH (A1). The procedure: as §3, §4, §5, §6, §7
For assay [9], the system named is Setaria faberi (SETFA). The description is as above. The note with it: post-emergence, 8 g/ha, 14 or 15 DAA; adjuvant 0.5% v/v + 1.0% AMS + 12.5% IPA: TEHP (A3-A7), Adigor (A8, P1, P2, P4), Hexamoll DINCH (A1). How it is done:
as §3, §4, §5, §6, §7

The subject of assay [10] is Zea mays (ZEAMX, corn). The assay is described as above. To be noted: post-emergence, 8 g/ha, 14 or 15 DAA; adjuvant 0.5% v/v + 1.0% AMS + 12.5% IPA: TEHP (A3-A7), Adigor (A8, P1, P2, P4), Hexamoll DINCH (A1). The procedure:
as §3, §4, §5, §6, §7

Setting [11] is: post-emergence, post-emergence, 30 g/ha.

Like-named read-outs stand apart in the source and are kept apart here.

Take `CC#Cc1cc(Br)c(C2C(=O)C3CCC(C3)C2=O)c(OC)c1` (centres unmarked) [Compound A3]: the pest or weed control at 30 g/ha in assay [1] (setting [11]) came to 0%; in assay [2] (post-emergence, 30 g/ha), 70%; in [3] (setting [11]) it was 90%; in assay [4] (setting [11]) it was 90%; in [5] (setting [11]), 0%; in assay [6] (setting [11]), 80%. Moreover, the pest or weed control at 250 g/ha came to 10% in assay [1] (post-emergence, post-emergence); 10% in assay [1] (pre-emergence, pre-emergence); 100% in assay [2] (post-emergence); 100% in assay [2] (pre-emergence); 100% in assay [3] (post-emergence, post-emergence); 100% in assay [3] (pre-emergence, pre-emergence). Further, the pest or weed control at 250 g/ha is 100% in assay [4] (post-emergence, post-emergence); 100% in [4] (pre-emergence, pre-emergence); 20% in [5] (post-emergence, post-emergence); 20% in assay [5] (pre-emergence, pre-emergence); 100% in [6] (post-emergence, post-emergence); 100% in assay [6] (pre-emergence, pre-emergence). In [7], the “percentage control of (percentage phytotoxicity on) Eleusine indica (ELEIN)” value (“percentage control … (ELEIN)” for short) worked out at 55%.
Take `CC#Cc1cc(F)c(C2C(=O)C3CCC(C3)C2=O)c(OCCOC)c1` (centres unmarked) [Compound A5]: the pest or weed control at 250 g/ha in assay [1] (post-emergence, post-emergence) is 30%; in assay [1] (pre-emergence, pre-emergence), 20%; in assay [2] (post-emergence) it was 70%; in [2] (pre-emergence), 40%; in assay [3] (post-emergence, post-emergence), 100%; in assay [3] (pre-emergence, pre-emergence), 80%. Also, the pest or weed control at 250 g/ha in [4] (post-emergence, post-emergence) was determined as 100%; in assay [4] (pre-emergence, pre-emergence), 90%; in assay [5] (post-emergence, post-emergence) it was 30%; in assay [5] (pre-emergence, pre-emergence) it was 50%; in assay [6] (post-emergence, post-emergence), 80%; in assay [6] (pre-emergence, pre-emergence), 60%. Besides, the “percentage control … (ELEIN)” value in [7] is on record as 0%. The “percentage control of (percentage phytotoxicity on) Digitaria sanguinalis (DIGSA)” value in [8] came to 0%. Also, the “percentage control of (percentage phytotoxicity on) Setaria faberi (SETFA)” value in assay [9] is given as 25%.
Turning to `CC#Cc1cc(F)c(C2C(=O)C3CCC(C3)C2=O)c(OCC(F)(F)F)c1` (centres unmarked) [Compound A6], the pest or weed control at 250 g/ha in [1] (post-emergence, post-emergence) was 20%; in assay [1] (pre-emergence, pre-emergence), 30%; in assay [2] (post-emergence) it was 80%; in assay [2] (pre-emergence), 60%; in assay [3] (post-emergence, post-emergence), 100%; in assay [3] (pre-emergence, pre-emergence) it was 80%. Also, the pest or weed control at 250 g/ha in assay [4] (post-emergence, post-emergence) turned out to be 100%; in assay [4] (pre-emergence, pre-emergence), 80%; in assay [5] (post-emergence, post-emergence), 50%; in [5] (pre-emergence, pre-emergence), 60%; in [6] (post-emergence, post-emergence) it was 80%; in [6] (pre-emergence, pre-emergence), 70%. Besides, the “percentage control … (ELEIN)” value in assay [7] is reported as 5%. For the same compound, the “percentage control of (percentage phytotoxicity on) Digitaria sanguinalis (DIGSA)” value in [8] amounted to 5%. Also, in [9], the “percentage control of (percentage phytotoxicity on) Setaria faberi (SETFA)” value was determined as 25%. Further, the “percentage control of (percentage phytotoxicity on) Zea mays (ZEAMX, corn)” value in assay [10] was 0%.

The values above are taken from US10590143B2, “Herbicidally active (alkynyl-phenyl)-substituted cyclic dione compounds and derivatives thereof” (Syngenta Limited, priority 2013, dated 2020).
